{
  "source": "patent US20230285365A1",
  "about": "“USE OF A DHODH INHIBITOR COMPOUND IN COMBINATION CANCER THERAPY” (Servier Pharmaceuticals LLC, priority 2020, published 2023)",
  "test_system": "mouse lymphoma models (DLBCL, MCL, Burkitt lymphoma, Hodgkin lymphoma, undifferentiated lymphoma)",
  "test": "Growth inhibition study in tumor-bearing mice, various mouse lymphoma models",
  "assay_type": "in vivo",
  "conditions": "doses as in treatment table (Compound 1 100 mg/kg BID, rituximab 20 mg/kg BIW, CHOP), FIGS. 1-3",
  "source_text": "See e.g., FIGS. 1-3, which show complete regression of certain diffuse large B-cell lymphoma (DLBCL), mantle cell lymphoma (MCL), Burkitt lymphoma, Hodgkin lymphoma, and undifferentiated lymphoma mouse models following treatment with Compound 1 and R-CHOP.\nGrowth Inhibition Study of Compound 1 with R-CHOP in Tumor-Bearing Mice.\nMice were implanted subcutaneously with 5×10^6 to 2×10^7 cells as required for each model. Tumor volumes were monitored twice a week until tumors reach approximately 150 mm^3. Once tumor burden was at this level, mice were randomized and treated with the following.\nAt the study end, tumor tissue, and plasma were collected 1 hr. post final dose of Compound 1. Treatment was well tolerated. FIGS. 1-3 show the percent change in tumor volume for the mouse models treated. […] A similar result was observed across the multiple subsets of lymphoma tested.",
  "data": [
    {"substance": "rituximab", "values": [
      {"measurement": "tumor response (percent change in tumor volume)", "value": "tumor growth continued"}
    ]}
  ]
}
